The values that follow come from publication PMC5200928 (ACS Central Science, 2016).

For one assay, the target named is BRD4 (Homo sapiens, UniProt O60885). The experiment in a line: BRD4 degradation in HeLa cells, immunoblot. It is filed as cell-based. Background: In western blotting, separated proteins are transferred to a membrane and probed.
The test system of another assay is ERK1/2. The experiment in a line: ERK1/2 degradation in A375 cells, immunoblot. Type of assay: cell-based. The settings on record: for ERK1/2 degradation: then Tz-thalidomide-Me 10 μM 18 h.

With `Cc1nnc(-c2ccc(CNC(=O)CCCCCOc3cccc4c3C(=O)N(C3CCC(=O)N(C)C3=O)C4=O)cc2)nn1` (stereo not drawn) [Tz-thalidomide-Me], the BRD4 level result on BRD4 (JQ1-TCO 10 μM 18 h, then Tz-thalidomide-Me 10 μM 18 h) was “remained unchanged”. In addition, the ERK1/2 degradation result with ERK1/2 (Probe 1 4 h) is “insignificant degradation of ERK1/2”; in the assay with ERK1/2 (Probe 1 4 h, listed as methyl-Tz-thalidomide) it was “reduced ERK1/2 degradation”.

On to `CC(C)C[C@H](NC(=O)[C@H](CCc1ccccc1)NC(=O)CN1CCOCC1)C(=O)N[C@@H](Cc1ccccc1)C(=O)N[C@@H](CC(C)C)C(=O)[C@@]1(C)CO1` [carfilzomib], for which the “BRD4 levels with proteasome inhibitor” value on BRD4 (4-h pretreatment with carfilzomib 1 μM, JQ1-TCO and Tz-thalidomide treatment) is reported as “BRD4 levels were rescued”. In addition, in the assay with ERK1/2 (4-h pretreatment with carfilzomib 1 μM, Probe 1 and Tz-thalidomide), the “ERK1/2 degradation with proteasome inhibitor” value is recorded as “ERK1/2 degradation was prevented”.

For the compound `O=C1CCC(N2C(=O)c3ccccc3C2=O)C(=O)N1` (stereo not drawn) [thalidomide], the “ERK1/2 degradation, competition” value in the assay with ERK1/2 (Probe 1 4 h, then untagged thalidomide 10 μM and Tz-thalidomide 1 μM 18 h) is on record as “degradation of ERK1/2 was suppressed”.
